According to the supplement of paper PMC10307832:

Experiments:
Assay in all cases: relative viability (nuclei count vs DMSO), 5 days (fraction); higher = more cells survive
EHT 1864 + Lapatinib = compound: C1COCCN1CC2=CC(=O)C(=CO2)OCCCCCSC3=C4C=CC(=CC4=NC=C3)C(F)(F)F [EHT 1864] + CS(=O)(=O)CCNCc1ccc(-c2ccc3ncnc(Nc4ccc(OCc5cccc(F)c5)c(Cl)c4)c3c2)o1 [Lapatinib] (partner 2 µM)
Summary of the method: (§1)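 Nuclei were stained with Hoechst during a one-step fixation (final 0.05% Triton X-100, 1% formaldehyde, 1 ug/ml Hoechst) carried out 5 days after dosing, then counted on 4× images. The cells, lung cancer lines in 1536-well plates, had been dosed by pin tool the day after seeding with one drug alone or a fixed anchor-drug dose plus five library-drug doses (not always all listed) in √10 steps. Relative viability is the nuclei count in treated wells divided by that in vehicle wells, and each value is the median of duplicate plates.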

EHT 1864 + Crizotinib = compound: C1COCCN1CC2=CC(=O)C(=CO2)OCCCCCSC3=C4C=CC(=CC4=NC=C3)C(F)(F)F [EHT 1864] + C[C@@H](Oc1cc(-c2cnn(C3CCNCC3)c2)cnc1N)c1c(Cl)ccc(F)c1Cl [Crizotinib] (partner 1 µM)
Summary of the method: as §1

EHT 1864 + Tozasertib = compound: C1COCCN1CC2=CC(=O)C(=CO2)OCCCCCSC3=C4C=CC(=CC4=NC=C3)C(F)(F)F [EHT 1864] + Cc1cc(Nc2cc(N3CCN(C)CC3)nc(Sc3ccc(NC(=O)C4CC4)cc3)n2)n[nH]1 [Tozasertib] (partner 0.1 µM)
Summary of the method: as §1

EHT 1864 + Decitabine = compound: C1COCCN1CC2=CC(=O)C(=CO2)OCCCCCSC3=C4C=CC(=CC4=NC=C3)C(F)(F)F [EHT 1864] + Nc1ncn([C@H]2C[C@H](O)[C@@H](CO)O2)c(=O)n1 [Decitabine] (partner 2 µM)
Summary of the method: as §1

Cell Line	relative viability (EHT 1864 + Lapatinib; first compound 0.04 µM)	relative viability (EHT 1864 + Lapatinib; first compound 0.1265 µM)	relative viability (EHT 1864 + Lapatinib; first compound 0.4 µM)	relative viability (EHT 1864 + Lapatinib; first compound 1.265 µM)	relative viability (EHT 1864 + Lapatinib; first compound 4 µM)	relative viability (EHT 1864 + Crizotinib; first compound 0.04 µM)	relative viability (EHT 1864 + Crizotinib; first compound 0.1265 µM)	relative viability (EHT 1864 + Crizotinib; first compound 0.4 µM)	relative viability (EHT 1864 + Crizotinib; first compound 1.265 µM)	relative viability (EHT 1864 + Crizotinib; first compound 4 µM)	relative viability (EHT 1864 + Tozasertib; first compound 0.04 µM)	relative viability (EHT 1864 + Tozasertib; first compound 0.1265 µM)	relative viability (EHT 1864 + Tozasertib; first compound 0.4 µM)	relative viability (EHT 1864 + Tozasertib; first compound 1.265 µM)	relative viability (EHT 1864 + Tozasertib; first compound 4 µM)	relative viability (EHT 1864 + Decitabine; first compound 0.04 µM)	relative viability (EHT 1864 + Decitabine; first compound 0.1265 µM)	relative viability (EHT 1864 + Decitabine; first compound 0.4 µM)	relative viability (EHT 1864 + Decitabine; first compound 1.265 µM)	relative viability (EHT 1864 + Decitabine; first compound 4 µM)
201T	1.07	1	1.07	1.01	1.01	1.05	1.03	1	0.984	1	0.916	0.912	0.983	0.853	0.864	0.86	0.874	0.863	0.8	0.778
A-427	1.09	1.06	1	1.09	1.07	0.949	0.945	0.817	0.8	0.811	0.198	0.232	0.208	0.189	0.217	0.566	0.572	0.548	0.564	0.59
ABC-1	1.06	1.15	0.949	0.729	1.15	1.35	1.03	0.991	0.733	0.759	0.15	0.164	0.185	0.189	0.195	1.35	0.91	1.15	0.881	0.901
BEN	0.811	0.638	0.671	0.556	0.666	0.979	0.775	0.753	0.885	0.964	0.544	0.433	0.547	0.461	0.481	0.775	0.727	0.767	0.764	0.702
CAL-12T	0.63	0.562	0.677	0.675	0.799	0.722	0.635	0.663	0.653	0.831	0.39	0.294	0.302	0.292	0.216	–	–	–	–	–
COR-L23	0.975	0.814	0.86	0.825	0.889	0.684	0.559	0.59	0.552	0.596	0.248	0.176	0.21	0.131	0.155	0.523	0.343	0.473	0.475	0.307
COR-L 105	0.345	0.374	0.338	0.38	0.334	0.614	0.732	1.05	0.774	0.74	0.343	0.36	0.367	0.369	0.693	0.781	0.578	0.574	0.786	0.637
Calu-6	1.03	0.933	1.03	1.04	0.857	0.763	0.767	0.676	0.748	0.733	–	–	–	–	–	–	–	–	–	–
ChaGo-K-1	–	–	–	–	–	1.14	1.15	1.12	–	1.01	0.215	0.221	0.228	0.207	0.204	0.584	0.501	0.527	0.477	0.531
EBC-1	0.222	0.225	0.194	0.19	0.238	0.18	0.181	0.219	0.205	0.196	–	–	–	–	–	–	–	–	–	–
EKVX	0.238	0.216	0.205	0.207	0.21	1.05	0.721	0.857	0.947	0.855	0.4	0.371	0.369	0.351	0.349	0.372	0.333	0.317	0.329	0.381
EMC-BAC-2	0.901	0.765	0.765	0.845	0.882	0.752	0.616	0.72	0.749	0.817	0.304	0.253	0.314	0.236	0.26	0.857	0.935	1	1.04	0.997
EPLC-272H	1.06	0.624	1.12	0.88	0.801	0.928	0.861	0.855	0.915	1.01	0.299	0.352	0.143	0.314	0.284	0.406	0.359	0.405	0.355	0.396
H3255	0.235	0.239	0.275	0.298	0.317	0.683	0.65	0.938	0.817	1	0.576	0.603	0.633	0.677	0.527	0.585	0.548	–	0.573	0.677
HARA	0.718	0.702	0.688	0.706	0.758	0.964	1	1.08	1.04	0.902	0.118	0.127	0.132	0.098	0.117	0.532	–	0.563	0.564	0.425
HCC-15	0.859	0.61	0.872	0.76	0.873	0.752	0.635	0.801	0.82	0.821	0.377	–	0.398	0.319	0.247	0.735	–	0.62	0.624	0.624
HCC-44	1.04	0.822	0.955	1.05	0.965	0.799	0.751	0.693	0.653	0.858	0.919	0.827	0.878	0.771	0.926	0.951	0.797	0.914	0.981	0.987
HCC-78	0.875	0.525	0.382	0.345	1.05	0.349	0.32	0.353	0.342	0.319	0.432	0.236	0.278	0.335	0.563	0.735	0.726	0.577	0.713	0.789
